In a melting point compilation (Tetko et al.; mined from patent text by program, amines drawn as free bases though some values may be those of a salt):

melting point | SMILES
122 to 123 °C | O=C1CC(O)CC(/C=C/c2cccc(Cl)c2Cl)O1 (stereo unspecified)
166 to 168 °C | COc1ccc2cc(-c3nn(C)c4cc(OC)ccc34)ccc2c1
124 to 125 °C | COc1ccc(Cc2nnc(N[C@H]3CC[C@H](C(C)C)CC3)c3ccccc23)cn1
157 to 159 °C | CN1CCCC1=NC(=O)Nc1cc(Cl)cc(Cl)c1
159 to 162 °C | CNc1nc(N)nc(NC2CC2)n1
203 to 204 °C | Cc1ccc(OCc2ccccc2)c2[nH]c(CCc3ccccc3)nc12
101 to 103 °C | C=C(C)C(=O)Nc1ccc(Nc2ccccc2)cc1
230 °C | Oc1ccc(Cl)cc1C(O)(C1CCCCC1)C1CCCCC1
191 to 192 °C | COc1ccc(-c2ccc(C(=O)Nc3ccc4cc(CN5CCCCC5)cnc4c3C)c(F)c2)cc1
250 °C | CNC(=O)N1CCc2[nH]cnc2C1C1CCCCC1 (stereo unspecified)
83 to 85 °C | Cc1cc(C(F)(F)F)nn1CC(=O)N1CCC(c2nc(C3=NOC(c4cccc(-n5cncn5)c4)C3)cs2)CC1 (stereo unspecified)
107 to 109 °C | O=C1CCC(N2Cc3c(OCc4ccc(CN(CCC(F)(F)F)CCC(F)(F)F)cc4)cccc3C2=O)C(=O)N1 (stereo unspecified)
184 to 186 °C | O=S(=O)(c1ccccc1)N1CCC(Nc2nc(Cl)nc(N3CCCC3)n2)CC1
64 °C | O=Cc1cc(-c2ccc(F)cc2Cl)ccc1OC(F)(F)F
94 to 95 °C | CCOc1ccc2cccnc2c1N
199 to 200 °C | NC1N=C(Cl)C=C(Cl)N1c1c([N+](=O)[O-])cc(C(F)(F)F)c(Cl)c1[N+](=O)[O-] (stereo unspecified)
138 to 140 °C | CCC(C)(C)O[C@H]1COC[C@H](NC(=O)c2nccc(OC)c2O)C(=O)O[C@@H](C)[C@@H]1OCC(C)C
171 to 173 °C | CCc1nn(C2CCCC2)c(N)c1C#N
174 to 177 °C | O=[N+]([O-])c1ccc(-c2cc3c(Nc4ccc(Cl)cc4F)ncnc3o2)cc1
159 to 161 °C | Cc1ccc(OS(=O)(=O)c2ccc(N3CCN(C)C3=O)cc2)c(C)c1
187 to 189 °C | O=C(CC1CCCCC1)Nc1c(Cl)ccc2nc(N3CCC(NS(=O)(=O)C(F)(F)F)CC3)ccc12
150 to 153 °C | CCOC(=O)C(=CNc1ncc(OC)c2ccccc12)C(=O)OCC
95 °C | COc1ccccc1C(O)c1cccc2c1ccn2C (stereo unspecified)
125 to 126 °C | Fc1ccc(C#Cc2ccnc(Cl)n2)cc1
229 to 231 °C | Nc1cccc(CCc2n[nH]c3c2c(=O)n(-c2ccccc2)c2ncccc32)c1

melting point | SMILES
243 to 245 °C | NS(=O)(=O)c1ccc(C2(c3nc4c(F)cccc4s3)C=C(C(F)F)NN2)cc1 (stereo unspecified)
103 to 105 °C | CC(C)Nc1nc2cc(Cl)c(Cl)cc2n1[C@H]1O[C@@H](C)[C@H](O)[C@@H]1O
103 to 104 °C | CCCC(CC(=O)NC(=O)OC(C)(C)C)Nc1ccccc1 (stereo unspecified)
200 to 202 °C | CC1CN(C(=O)N(c2ccccc2)c2ccccc2)CCN1C(=O)N(c1ccccc1)c1ccccc1 (stereo unspecified)
180 to 181 °C | O=C(Cn1nc(-c2ccccc2O)nc1-c1ccccc1O)NCC(O)CO (stereo unspecified)
230 °C | CCc1cccc(C)c1CNc1nc(C(=O)O)cn2c(C)c(C)nc12
57 to 59 °C | O=S1(=O)O[C@H](COCc2ccccc2)CC[C@@H](COCc2ccccc2)O1
132 to 134 °C | CCN1CC(NC(=O)c2cc(Cl)c(N)cc2OC)C=N1 (stereo unspecified)
130 °C | CCC(CC)CNC(=O)c1ccc2cccc(Cc3ccc(C(=O)OC)cc3OC)c2c1
157 to 161 °C | CCC(=CC(CNC(=O)c1ccc(N)nc1)=NO)C(C)[N+](=O)[O-] (stereo unspecified)
128 to 132 °C | Cn1ccnc1SCOC(=O)C(C)(C)C
154 to 156 °C | O=C(O)COc1c(-c2ccccc2)cc([N+](=O)[O-])cc1-c1ccccc1
55 to 60 °C | CS(=O)(=O)OCC1(c2ccccc2)CCCC1
157 to 159 °C | CCCOC(=O)NCCCC1(O)c2ccccc2C=Cc2c(C)cccc21 (stereo unspecified)
176 °C | Cc1noc(NS(=O)(=O)c2ccsc2C(=O)Nc2ccccc2)c1C
86 to 91 °C | CCOC(=O)[C@H](Cc1ccc(-c2c(C(F)(F)F)cc(C)n(C)c2=O)cc1)NC(=O)c1c(Cl)cccc1Cl
175 to 177 °C | Cc1ccc(C)n1CCNC(=O)Nc1ccc(Cl)cc1
270 to 271 °C | COc1cc2c(cc1OC)C1=C(CC2)NC(=O)CC1
231 to 233 °C | CC1(Cn2nc(-c3ccc(Br)cc3)oc2=O)Cn2cc([N+](=O)[O-])nc2O1 (stereo unspecified)
266 to 271 °C | Cn1c(Cc2ccc(Cl)cc2Cl)nc2cc(C(=O)O)ccc2c1=O
244 to 245 °C | OCC1CC(O)C(n2cnc3cc(Cl)c(Cl)cc32)C1 (stereo unspecified)
287 to 289 °C | O=C(C=Cc1ccco1)Nc1nnn[nH]1
133 to 134 °C | CCCCCC(=O)OCc1cc(O)ncn1
75 to 77 °C | COC1(c2cc(F)cc(CC#COC#CCc3cc(F)cc(C4(OC)CCOCC4)c3)c2)CCOCC1
140 to 143 °C | CCCCc1nc(C(=O)CC)c(C#N)n1C(c1ccccc1)(c1ccccc1)c1ccccc1

melting point | SMILES
120 to 124 °C | Cc1nn(-c2cc(OC(C)C)c(Cl)cc2F)c(=O)[nH]1
97 to 98 °C | CCOCc1ccc2oc(C(=O)OCC)c(C)c2c1O
209 to 212 °C | CCCCCCCNC(=O)Nc1ccccc1C(=O)N1CCN(c2ccccc2OC)CC1
89 to 90 °C | COCN1C(C)=C(C(=O)O)C(c2cccc(Cl)c2Cl)C(C(=O)OCOC(=O)C(C)(C)C)=C1C (single isomer, unassigned; (+))
210 to 211 °C | COc1ccc(-c2c(C(C)=O)c(C)nc3cc(OC)c(OC)cc23)cc1OC
240 to 242 °C | O=C1CCC(N2C(=O)c3cccc(NCC(=O)NC4CC4)c3C2=O)C(=O)N1 (stereo unspecified)
185 °C | O=C(N1CC(CCl)c2c1ccc1ccccc21)C(F)(F)F (stereo unspecified)
103 to 107 °C | Cn1ccc2cc(NC(=O)Oc3ccccc3)ccc21
189 to 191 °C | CCOC(=O)c1cnn2c1c(S)nc1c(C)nn(C)c12
47.5 to 49.5 °C | CCN(CC)NC(C)=O
121 to 122 °C | COC(=O)CCc1cc(C(=O)c2cccc(C(=O)OC)n2)ccc1O
144 to 148 °C | COc1ccc(O)c(C(=O)c2ccc(O)cc2)c1
134 to 137 °C | CCCCOC(=O)c1nn(-c2ccc(I)cc2)c(C)cc1=O
222 to 223 °C | Oc1ccc(-c2ncc3ncc(-c4ccc(S)cc4)cc3n2)cc1
150 to 152 °C | CSC(Nc1cc(C(F)(F)F)cc(C(F)(F)F)c1)=C(C#N)S(=O)(=O)c1ccc(Cl)cc1
261 to 262 °C | CCNC(=O)c1ccccc1Nc1nc(Nc2ccc3c(c2)C(C)(C)CNC(=O)C3)ncc1Cl
296 to 299 °C | COc1nc(C)c(N2CCCn3c2nc2cccc(C(O)C(F)(F)F)c23)c(C)n1 (stereo unspecified)
233 to 235 °C | O=C1N=C(N2CCOCC2)SC1=Cc1cccc(-c2ccc(O)c(F)c2)c1
156 to 157 °C | CCCNC(=O)N=c1ccn(-c2ccccc2)nc1
272 to 274 °C | COC(=O)Nc1nc2cc(S(=O)CC3CCCCC3)ccc2[nH]1 (stereo unspecified)
153 °C | NC(=O)c1nc(Cl)sc1Cl
112 to 114 °C | Cc1ccc(S(=O)(=O)N(c2ccc(Cl)cc2[N+](=O)[O-])C(C)C)cc1
186 to 188 °C | CN(C)C=NS(=O)(=O)c1cc2cnc(C=O)cc2o1
124 to 126 °C | O=C1OC(O)c2cccc(O)c21 (stereo unspecified)
109 °C | O=[N+]([O-])c1cccc(OCc2ccc3ccccc3n2)c1

melting point | SMILES
89 to 90 °C | Cc1ccccc1C1=NC(C)(C)OC1c1ccc(N(C)C)cc1 (stereo unspecified)
65 to 67 °C | CON=C(C)c1c(C)oc2c(-n3c(=O)cc(C(F)(F)F)n(C)c3=O)c(F)cc(Cl)c12
137 to 138 °C | O=CNc1ccc2c(c1)C(=O)CCC2
96 to 97 °C | CC(=O)c1cc2c(c(C)c1O)OC(C)(C)CC2C (stereo unspecified)
105 to 108 °C | O=C(c1ccc2[nH]ccc2c1)N1CCN(CCc2ccccc2)CC1
186 to 188 °C | CC(C)c1cc(S(=O)(=O)c2c(Br)cc(CCC(=O)O)cc2Br)ccc1O
128 to 129 °C | CNC(=O)SC(C(=O)O)c1ccccc1 (stereo unspecified)
115 to 118 °C | CC[C@@H](C)[C@H]1c2ccccc2-c2ccccc2N1S(=O)(=O)c1ccc(O)cc1 (relative stereo)
214 to 215 °C | CC(C)n1nc(-c2cnc(N)nc2-c2ccccc2)ccc1=O
148 to 149 °C | COc1ccc(S(=O)(=O)N(CCC(F)=C(F)F)c2ccccc2/C=C/c2ccncc2)cc1
230 to 235 °C | CCC1(O)C(=O)OCc2c1cc1n(c2=O)Cc2cc3cc(O)ccc3nc2-1 (stereo unspecified)
140 to 141 °C | FC(F)(F)c1cc(NC(=S)N[C@@H]2CCCC[C@H]2NCc2ccccc2)cc(C(F)(F)F)c1
246 to 247 °C | CNNC(=O)Nc1ncnc2cc(OC)c(OC)cc12
194 °C | CN1C(=O)CC(c2ccccc2)C1C(O)c1ccc(-c2ccc(F)c(Cl)c2)s1 (stereo unspecified)
70 to 72 °C | CCc1noc(-c2ncn(-c3cccnc3)c2COC)n1
60.5 to 61.5 °C | CCCCCCCCCCCCCCSc1ccc(Cl)c(N)c1
95 to 101 °C | CC(C)n1c(C=O)c(-c2ccc(F)cc2)c2cccnc21
118 to 119 °C | CC(=O)CCN1C(=O)c2ccccc2S1(=O)=O
133 to 134 °C | CC(=O)Nc1ccc(S(=O)(=O)NCC2CCN(C[C@H]3COc4ccc5[nH]ccc5c4O3)CC2)cc1
210 °C | C=Cn1cc(C(=O)O)c(=O)c2cc(F)c(Cl)cc21
184 °C | FC(F)(F)c1nnc(-c2ccc(Cl)cc2)n1-c1ccc(Cl)cc1
198 °C | Cc1cn2c(N)c(Cl)cc(C(=O)NCC3CCN(CC(=O)C(C)(C)C)CC3)c2n1

SMILES | melting point
[N-]=[N+]=NCC1OC(n2c(N=[N+]=[N-])nc3c(N)ncnc32)C(O)C1O (stereo unspecified) | 128 to 130 °C
CC(C)NC(=O)Nc1cc(-c2ccnc3c(C(=O)c4cccs4)cnn23)ccc1F | > 200 °C
CC12CCC3c4ccc(OC(=O)Cc5ccccc5)cc4CCC3C1CCC2=O (stereo unspecified) | 114 to 116 °C
CC12CCC3C(CCC4=C(N)C(=O)CCC43C)C1CCC2=O (stereo unspecified) | 186 to 188 °C
